Laboratory results taken from patent US20080200403A1, “9A-Carbamoyl and Thiocarbamoyl Azalides with Anti-Inflammatory Activity” (GLAXOSMITHKLINE, priority 2005, published 2008).
Read-outs that look alike come from different tables or passages of the source.

Key:
Type in all cases: cell-based
TNF-α = experiment: Inhibition of TNF-α production by stimulated human peripheral blood leukocytes in vitro; details: Homo sapiens, Leukocyte, PBL, read-out: Percentage of inhibition of TNF-α production; for inhibition at 10 µM: compound 10 μM; for inhibition at 50 µM: compound 50 μM
Method in brief: (§1)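 Dextran-isolated human PBL (3-5×10^6 per well) in RPMI with 10% FCS were preincubated 2 h at 37 °C with compounds at 50 μM or 10 μM final, then stimulated overnight with 2 μg/mL LPS, 1 μg/mL PMA or 120 μg/mL zymosan. Supernatant cytokines by sandwich ELISA; % inhibition versus stimulated untreated control.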

Hep G2 = experiment: MTT cytotoxicity assay on Hep G2 cell line; details: human, 24 h
Method: To determine whether the anti-inflammatory activity of the test compounds was due to observed inhibition of cytokine production and inhibition of proliferation in vitro, and was not a consequence of cellular cytotoxicity, measurement of succinate dehydrogenase activity in living cells was performed. Cells were cultured for 24 h in RPMI medium as described above at 37° C. in the presence of the test compounds at concentrations of 50 μM and 12.5 μM. MTT [3-(4,5-dimethylthiazole-2-yl)-2,5-diphenyl tetrazolium bromide] (Promega, USA), a detection reagent, was then added and the cultures were incubated for 0.5-2 h. The amount of MTT-Formazan produced was determined using a spectrophotometer at 490 nm (Mosmann, J. Imnunol. Methods, 1983, 65: 55-63). Percentage of viable cells was calculated using the following formula:
% viable cells=([…]OD490 treated cells/OD490 nontreated cells)×100

IL-8 = experiment: Inhibition of IL-8 production by stimulated human peripheral blood leukocytes in vitro; details: Homo sapiens, Leukocyte, PBL, read-out: Percentage of inhibition of IL-8 production; for inhibition at 10 µM: compound 10 μM; for inhibition at 50 µM: compound 50 μM
Method in brief: as §1

[1] = system: human peripheral blood mononuclear cells (PBMC); experiment: Human T-cell proliferation in vitro (3H-thymidine incorporation); details: Homo sapiens, PBMC, read-out: Percentage of inhibition of proliferation of stimulated PBMC; for inhibition at 10 µM: compound 10 μM; for inhibition at 50 µM: compound 50 μM
Method in brief: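 Donor PBMC isolated on Histopaque, 5×10^4 cells/well cultured 3 days at 37 °C with PHA (2.5 μg/mL) or PMA (10 ng/mL) plus ionomycin (500 ng/mL), and compound at 50 μM or 10 μM. 3H-thymidine pulse during final 18 h; % inhibition versus stimulated untreated cpm.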

IL-6 = experiment: Inhibition of IL-6 production by stimulated human peripheral blood leukocytes in vitro; details: Homo sapiens, Leukocyte, PBL, read-out: Percentage of inhibition of IL-6 production; for inhibition at 10 µM: compound 10 μM; for inhibition at 50 µM: compound 50 μM
Method in brief: as §1

IL-1α = experiment: Inhibition of IL-1 production by stimulated human peripheral blood leukocytes in vitro; details: Homo sapiens, Leukocyte, PBL, read-out: Percentage of inhibition of IL-1α production; for inhibition at 10 µM: compound 10 μM; for inhibition at 50 µM: compound 50 μM

CC[C@H]1OC(=O)[C@H](C)[C@@H](O[C@H]2C[C@@](C)(OC)[C@@H](O)[C@H](C)O2)[C@H](C)[C@@H](O[C@@H]2O[C@H](C)C[C@H](N(C)C)[C@H]2O)[C@](C)(OC)C[C@@H](C)C(=O)[C@H](C)[C@@H](O)[C@]1(C)O [Clarithromycin, clarithromycin, reference compound]
inhibition at 10 µM (TNF-α; LPS stimulated): 0%
inhibition at 50 µM (TNF-α; LPS stimulated): 0%
inhibition at 10 µM (TNF-α; PMA stimulated): 0%
inhibition at 50 µM (TNF-α; PMA stimulated): 0%
inhibition at 10 µM (TNF-α; zymosan stimulated): 0%
inhibition at 50 µM (TNF-α; zymosan stimulated): 0%
Percentage of viable cells after treatment (Hep G2; 12.5 μM): 100%
Percentage of viable cells after treatment (Hep G2; 50 μM): 100%
inhibition at 10 µM (IL-8; LPS stimulated): 23%
inhibition at 50 µM (IL-8; LPS stimulated): 0%
inhibition at 10 µM (IL-8; PMA stimulated): 33%
inhibition at 50 µM (IL-8; PMA stimulated): 0%
inhibition at 10 µM (IL-8; zymosan stimulated): 0%
inhibition at 50 µM (IL-8; zymosan stimulated): 0%
inhibition at 10 µM ([1]; PHA stimulated): 0%
inhibition at 50 µM ([1]; PHA stimulated): 7%
inhibition at 10 µM ([1]; PMA + ionomycin stimulated): 9%
inhibition at 50 µM ([1]; PMA + ionomycin stimulated): 14%
inhibition at 10 µM (IL-6; LPS stimulated): 11%
inhibition at 50 µM (IL-6; LPS stimulated): 0%
inhibition at 10 µM (IL-6; PMA stimulated): 0%
inhibition at 50 µM (IL-6; PMA stimulated): 0%
inhibition at 10 µM (IL-6; zymosan stimulated): 28%
inhibition at 50 µM (IL-6; zymosan stimulated): 0%
inhibition at 10 µM (IL-1α; LPS stimulated): 0%
inhibition at 50 µM (IL-1α; LPS stimulated): 0%
inhibition at 10 µM (IL-1α; PMA stimulated): 26%
inhibition at 50 µM (IL-1α; PMA stimulated): 33%
inhibition at 10 µM (IL-1α; zymosan stimulated): 36%
inhibition at 50 µM (IL-1α; zymosan stimulated): 59%

CC[C@H]1OC(=O)[C@H](C)[C@@H](O[C@H]2C[C@@](C)(OC)[C@@H](O)[C@H](C)O2)[C@H](C)[C@@H](O[C@@H]2O[C@H](C)C[C@H](N(C)C)[C@H]2O)[C@](C)(O)C[C@@H](C)CN(C(=S)Nc2ccccc2F)[C@H](C)[C@@H](O)[C@]1(C)O [Compound 5]
inhibition at 10 µM (TNF-α; LPS stimulated): 19%
inhibition at 50 µM (TNF-α; LPS stimulated): 45%
inhibition at 10 µM (TNF-α; PMA stimulated): 62%
inhibition at 50 µM (TNF-α; PMA stimulated): 85%
inhibition at 10 µM (TNF-α; zymosan stimulated): 49%
inhibition at 50 µM (TNF-α; zymosan stimulated): 76%
Percentage of viable cells after treatment (Hep G2; 12.5 μM): 100%
Percentage of viable cells after treatment (Hep G2; 50 μM): 100%
inhibition at 10 µM (IL-8; LPS stimulated): 16%
inhibition at 50 µM (IL-8; LPS stimulated): 42%
inhibition at 10 µM (IL-8; PMA stimulated): 23%
inhibition at 50 µM (IL-8; PMA stimulated): 69%
inhibition at 10 µM (IL-8; zymosan stimulated): 20%
inhibition at 50 µM (IL-8; zymosan stimulated): 46%
inhibition at 10 µM ([1]; PHA stimulated): 0%
inhibition at 50 µM ([1]; PHA stimulated): 72%
inhibition at 10 µM ([1]; PMA + ionomycin stimulated): 20%
inhibition at 50 µM ([1]; PMA + ionomycin stimulated): 87%
inhibition at 10 µM (IL-6; LPS stimulated): 64%
inhibition at 50 µM (IL-6; LPS stimulated): 72%
inhibition at 10 µM (IL-6; PMA stimulated): 44%
inhibition at 50 µM (IL-6; PMA stimulated): 60%
inhibition at 10 µM (IL-6; zymosan stimulated): 66%
inhibition at 50 µM (IL-6; zymosan stimulated): 88%
inhibition at 10 µM (IL-1α; LPS stimulated): 41%
inhibition at 50 µM (IL-1α; LPS stimulated): 10%
inhibition at 10 µM (IL-1α; PMA stimulated): 14%
inhibition at 50 µM (IL-1α; PMA stimulated): 14%
inhibition at 10 µM (IL-1α; zymosan stimulated): 27%
inhibition at 50 µM (IL-1α; zymosan stimulated): 41%
